Patent publication US20200078463A1, “COMPOSITION HAVING IMPROVED WATER SOLUBILITY AND BIOAVAILABILITY” (SAMYANG BIOPHARMACEUTICALS CORPORATION, priority 2017, published 2020)
Structures can show the parent of a compound that is named as a salt.

Test: Additive screening: dissolved sorafenib in pH 1.2 buffer by HPLC
Format: physicochemical
Conditions: 100 mg sorafenib tosylate (crystalline form III) + 10 mg additive in 1 ml pH 1.2 buffer, shaken at 1,100 rpm for 24 hours, filtered 0.45 μm
Protocol: In order to test the content of drug included in the formulation, it was analyzed by HPLC using the following test method.
(1) Buffer preparation: After dissolving 0.77 g ammonium acetate in 1000 ml of water, the pH of the solution was adjusted to 6.8±0.05 using ammonia solutions.
(2) The solution of (1) and acetonitrile were mixed at 40:60 (v/v), and the solution filtered with a filter paper having a pore size of 0.45 μm and degassed was used as a mobile phase.
The buffer solution (1) and acetonitrile were mixed at 30:70 (v/v) to obtain a dilution solution.
1 ml of the standard solution (300 μg/ml) was precisely taken, and 2 ml of the diluted solution was added to prepare a standard solution (100 μg/ml). 1 ml of the standard solution (300 μg/ml) was precisely taken, and 4 ml of the diluted solution was added to prepare a standard solution (60 μg/ml). 1 ml of the standard solution (100 μg/ml) was precisely taken, and 4 ml of the diluted solution was added to prepare a standard solution (20 μg/ml). A calibration curve was drawn using the four standard solutions and used to calculate the content of the test solution.
Detector: ultraviolet absorbance photometer (wavelength 265 nm)
Column: Eclipse XDB-C18, 4.6 mm×150 mm, 5 μm or equivalent column
Column temperature: 27° C.
It was shaken at 1,100 rpm for 24 hours. […]

CNC(=O)c1cc(Oc2ccc(NC(=O)Nc3ccc(Cl)c(C(F)(F)F)c3)cc2)ccn1 [No polymer, sorafenib tosylate]
Concentration of dissolved sorafenib: 100 ng/mL
